What was measured:
Assay type in all cases: in vivo
Crabgrass [1] = test: pre-emergent herbicidal test; details: T
Experimental: (§1) The pre-emergent test was conducted as follows:
(§2) A good grade of top soil was placed in aluminum pans and compactd to a depth of 0.95 to 1.27 cm. from the top of the pan. On the top of the soil was placed a predetermined number of seeds or vegetative propagules of various plant species. The soil required to level fill the pans after seeding or adding vegetative propagules was weighed into a pan. A known amount of the herbicidal active ingredient applied in a solvent or as a wettable powder and the soil were thoroughly mixed, and used as a cover layer for prepared pans. After treatment the pans were moved into a greenhouse bench where they were watered from below as needed to give adequate moisture for germination and growth.
(§3) A herbicidal rating code was used to signify the extent of phytotoxicity of each species. The ratings are defined as follows: […]

Hemp Sesbania [2] = test: pre-emergent herbicidal test; details: R
Experimental: as §1, §2, §3

Panicum Spp [3] = test: pre-emergent herbicidal test; details: S
Experimental: as §1, §2, §3

Rice [4] = test: pre-emergent herbicidal test; details: O
Experimental: as §1, §2, §3

Sorghum [5] = test: pre-emergent herbicidal test; details: P
Experimental: as §1, §2, §3

Soybean [6] = test: pre-emergent herbicidal test; details: L
Experimental: as §1, §2, §3

Sugar Beet [7] = test: pre-emergent herbicidal test; details: M
Experimental: as §1, §2, §3

Wheat [8] = test: pre-emergent herbicidal test; details: N
Experimental: as §1, §2, §3

Wild Buckwheat [9] = test: pre-emergent herbicidal test; details: Q
Experimental: as §1, §2, §3

Crabgrass [10] = test: post-emergent herbicidal test; details: T
Experimental: (§4) The post-emergent tests were conducted as follows:
(§5) The herbicidal active ingredients are applied in spray form to two or three-week old specimens of various plant species. The spray, a solution or wettable powder suspension containing the appropriate rate of herbicidal active ingredient to give the desired test rate and a surfactant, is applied to the plants. The treated plants are placed in a greenhouse and approximately two or four weeks later the effects are observed and recorded. The results are shown in Tables IX and X in which the post-emergent herbicidal rating code is as follows: […]

Hemp Sesbania [11] = test: post-emergent herbicidal test; details: R
Experimental: as §4, §5

Panicum Spp [12] = test: post-emergent herbicidal test; details: S
Experimental: as §4, §5

Rice [13] = test: post-emergent herbicidal test; details: O
Experimental: as §4, §5

Sorghum [14] = test: post-emergent herbicidal test; details: P
Experimental: as §4, §5

Soybean [15] = test: post-emergent herbicidal test; details: L
Experimental: as §4, §5

Sugar Beet [16] = test: post-emergent herbicidal test; details: M
Experimental: as §4, §5

Wheat [17] = test: post-emergent herbicidal test; details: N
Experimental: as §4, §5

Wild Buckwheat [18] = test: post-emergent herbicidal test; details: Q
Experimental: as §4, §5
Also: ranges in brackets are in %.

CCCOC(=N)Cn1c(=O)sc2ccccc21 [Compound 30]
1 (25-49): pre-emergent herbicidal rating (Hemp Sesbania [2]; 0.28 kg/h, 2 WAT) | pre-emergent herbicidal rating (Rice [4]; 5.6 kg/h, 4 WAT) | pre-emergent herbicidal rating (Soybean [6]; 1.12 kg/h, 4 WAT) | pre-emergent herbicidal rating (Sugar Beet [7]; 0.28 kg/h, 2 WAT) | pre-emergent herbicidal rating (Sugar Beet [7]; 1.12 kg/h, 4 WAT) | pre-emergent herbicidal rating (Wheat [8]; 5.6 kg/h, 4 WAT) | pre-emergent herbicidal rating (Wild Buckwheat [9]; 1.12 kg/h, 4 WAT)
0 (0-24): pre-emergent herbicidal rating (Crabgrass [1]; 0.28 kg/h, 2 WAT) | pre-emergent herbicidal rating (Panicum Spp [3]; 0.28 kg/h, 2 WAT) | pre-emergent herbicidal rating (Panicum Spp [3]; 1.12 kg/h, 4 WAT) | pre-emergent herbicidal rating (Panicum Spp [3]; 5.6 kg/h, 4 WAT) | pre-emergent herbicidal rating (Rice [4]; 0.28 kg/h, 2 WAT) | pre-emergent herbicidal rating (Rice [4]; 1.12 kg/h, 4 WAT) | pre-emergent herbicidal rating (Sorghum [5]; 0.28 kg/h, 2 WAT) | pre-emergent herbicidal rating (Sorghum [5]; 1.12 kg/h, 4 WAT) | pre-emergent herbicidal rating (Sorghum [5]; 5.6 kg/h, 4 WAT) | pre-emergent herbicidal rating (Soybean [6]; 0.28 kg/h, 2 WAT) | pre-emergent herbicidal rating (Wheat [8]; 0.28 kg/h, 2 WAT) | pre-emergent herbicidal rating (Wheat [8]; 1.12 kg/h, 4 WAT) | pre-emergent herbicidal rating (Wild Buckwheat [9]; 0.28 kg/h, 2 WAT)
2 (50-74): pre-emergent herbicidal rating (Crabgrass [1]; 1.12 kg/h, 4 WAT) | pre-emergent herbicidal rating (Hemp Sesbania [2]; 1.12 kg/h, 4 WAT) | pre-emergent herbicidal rating (Wild Buckwheat [9]; 5.6 kg/h, 4 WAT)
3 (75-100): pre-emergent herbicidal rating (Crabgrass [1]; 5.6 kg/h, 4 WAT) | pre-emergent herbicidal rating (Hemp Sesbania [2]; 5.6 kg/h, 4 WAT) | pre-emergent herbicidal rating (Soybean [6]; 5.6 kg/h, 4 WAT) | pre-emergent herbicidal rating (Sugar Beet [7]; 5.6 kg/h, 4 WAT)

COC(=N)Cn1c(=O)sc2ccccc21 [Compound 37]
2 (50-74): post-emergent herbicidal rating (Hemp Sesbania [11]; 1.12 kg/h, 4 WAT) | post-emergent herbicidal rating (Soybean [15]; 5.6 kg/h, 4 WAT) | post-emergent herbicidal rating (Sugar Beet [16]; 1.12 kg/h, 4 WAT) | post-emergent herbicidal rating (Sugar Beet [16]; 5.6 kg/h, 4 WAT) | post-emergent herbicidal rating (Wild Buckwheat [18]; 1.12 kg/h, 4 WAT)
0 (0-24): post-emergent herbicidal rating (Crabgrass [10]; 1.12 kg/h, 4 WAT) | post-emergent herbicidal rating (Panicum Spp [12]; 1.12 kg/h, 4 WAT) | post-emergent herbicidal rating (Panicum Spp [12]; 5.6 kg/h, 4 WAT) | post-emergent herbicidal rating (Rice [13]; 1.12 kg/h, 4 WAT) | post-emergent herbicidal rating (Rice [13]; 5.6 kg/h, 4 WAT) | post-emergent herbicidal rating (Sorghum [14]; 1.12 kg/h, 4 WAT) | post-emergent herbicidal rating (Sorghum [14]; 5.6 kg/h, 4 WAT) | post-emergent herbicidal rating (Wheat [17]; 1.12 kg/h, 4 WAT) | post-emergent herbicidal rating (Wheat [17]; 5.6 kg/h, 4 WAT)
1 (25-49): post-emergent herbicidal rating (Crabgrass [10]; 5.6 kg/h, 4 WAT) | post-emergent herbicidal rating (Soybean [15]; 1.12 kg/h, 4 WAT)
4 (100): post-emergent herbicidal rating (Wild Buckwheat [18]; 5.6 kg/h, 4 WAT)
3 (75-99): post-emergent herbicidal rating (Hemp Sesbania [11]; 5.6 kg/h, 4 WAT)

COC(=N)Cn1c(=O)sc2ccccc21 [Compound 38]
1 (25-49): post-emergent herbicidal rating (Hemp Sesbania [11]; 1.12 kg/h, 4 WAT) | post-emergent herbicidal rating (Rice [13]; 1.12 kg/h, 4 WAT) | post-emergent herbicidal rating (Soybean [15]; 0.28 kg/h, 2 WAT) | post-emergent herbicidal rating (Soybean [15]; 1.12 kg/h, 4 WAT) | post-emergent herbicidal rating (Sugar Beet [16]; 0.28 kg/h, 2 WAT)
0 (0-24): post-emergent herbicidal rating (Crabgrass [10]; 0.28 kg/h, 2 WAT) | post-emergent herbicidal rating (Crabgrass [10]; 1.12 kg/h, 4 WAT) | post-emergent herbicidal rating (Hemp Sesbania [11]; 0.28 kg/h, 2 WAT) | post-emergent herbicidal rating (Panicum Spp [12]; 0.28 kg/h, 2 WAT) | post-emergent herbicidal rating (Panicum Spp [12]; 1.12 kg/h, 4 WAT) | post-emergent herbicidal rating (Rice [13]; 0.28 kg/h, 2 WAT) | post-emergent herbicidal rating (Sorghum [14]; 0.28 kg/h, 2 WAT) | post-emergent herbicidal rating (Sorghum [14]; 1.12 kg/h, 4 WAT) | post-emergent herbicidal rating (Wheat [17]; 0.28 kg/h, 2 WAT) | post-emergent herbicidal rating (Wheat [17]; 1.12 kg/h, 4 WAT) | post-emergent herbicidal rating (Wild Buckwheat [18]; 0.28 kg/h, 2 WAT)
2 (50-74): post-emergent herbicidal rating (Sugar Beet [16]; 1.12 kg/h, 4 WAT) | post-emergent herbicidal rating (Wild Buckwheat [18]; 1.12 kg/h, 4 WAT)

— US4228292A, “N-Substituted benzothiazolines and benzoxazolines and their use as herbicides and plant growth regulants” (Monsanto Company, priority 1978, dated 1980)
